The source of these data is article PMC8041284, “Tunable Methacrylamides for Covalent Ligand Directed Release Chemistry” (Journal of the American Chemical Society, 2021).

Experiment [1] has as its target T1, EGFR (Homo sapiens, UniProt P00533). As to the kind of experiment: In vitro kinase activity assay (Nanosyn). The format is biochemical. As to conditions: EGFR kinase activity assay, 0.75 nM EGFR, 5 μM ATP.
Target sequence in this assay (P00533 25-1210): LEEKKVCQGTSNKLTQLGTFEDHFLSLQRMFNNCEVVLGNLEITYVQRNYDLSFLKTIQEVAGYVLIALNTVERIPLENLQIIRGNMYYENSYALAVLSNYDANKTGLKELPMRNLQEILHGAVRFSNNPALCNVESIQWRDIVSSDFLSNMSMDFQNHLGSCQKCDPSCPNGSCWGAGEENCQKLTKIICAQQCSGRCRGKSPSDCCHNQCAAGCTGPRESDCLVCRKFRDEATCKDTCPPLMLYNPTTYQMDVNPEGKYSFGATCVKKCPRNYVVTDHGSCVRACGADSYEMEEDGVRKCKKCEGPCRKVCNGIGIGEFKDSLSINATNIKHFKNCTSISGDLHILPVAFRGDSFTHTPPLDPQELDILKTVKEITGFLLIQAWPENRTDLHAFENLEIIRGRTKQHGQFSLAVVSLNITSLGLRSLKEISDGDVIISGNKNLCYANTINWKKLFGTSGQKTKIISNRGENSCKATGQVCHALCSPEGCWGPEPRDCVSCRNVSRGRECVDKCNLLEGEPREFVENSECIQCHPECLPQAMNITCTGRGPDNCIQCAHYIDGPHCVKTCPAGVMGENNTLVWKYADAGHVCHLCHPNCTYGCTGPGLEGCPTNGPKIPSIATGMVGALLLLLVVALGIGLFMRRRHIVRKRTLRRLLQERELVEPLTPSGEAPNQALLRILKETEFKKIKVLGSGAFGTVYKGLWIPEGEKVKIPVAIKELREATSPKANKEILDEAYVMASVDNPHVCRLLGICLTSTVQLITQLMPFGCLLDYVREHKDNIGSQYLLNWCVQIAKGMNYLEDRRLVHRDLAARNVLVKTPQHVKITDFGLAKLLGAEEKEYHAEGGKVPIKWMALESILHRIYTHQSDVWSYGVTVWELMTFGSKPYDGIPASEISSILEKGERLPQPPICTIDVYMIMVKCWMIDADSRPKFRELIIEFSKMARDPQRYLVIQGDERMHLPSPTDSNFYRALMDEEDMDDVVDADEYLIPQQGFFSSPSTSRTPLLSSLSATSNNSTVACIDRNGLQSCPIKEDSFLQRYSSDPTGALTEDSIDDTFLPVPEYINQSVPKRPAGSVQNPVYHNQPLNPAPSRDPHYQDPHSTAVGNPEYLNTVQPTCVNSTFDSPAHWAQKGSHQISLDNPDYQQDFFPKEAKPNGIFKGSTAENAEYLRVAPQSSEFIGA
Experimental: Kinase reactions are assembled in 384-well plates (Greiner) in a total volume of 20 μL. Test compounds were diluted in DMSO to a final concentration, while the final concentration of DMSO in all assays was kept at 1%. The compounds were incubated with the kinases for 2 h. […] The reaction was initiated by 2-fold dilution into a solution containing 5 μM ATP and 1 μM substrate in the kinase buffer
in 100 mM HEPES, pH 7.5, 0.1% BSA, 0.01% Triton X-100, 1 mM DTT, 10 mM MnCl2.
initiated by 2-fold dilution into a solution containing 5 μM ATP and 1 μM substrate in the kinase buffer.
Experiment [2] has as its target T1, EGFR. As to the kind of experiment: Fluorescence intensity measurement of CoLDR turn-on probe. The conditions noted are these: 2 μM probe, 2 μM protein. Also on record: EGFR kinase domain was a generous gift from Prof; Michael Eck; gift from Prof. It counts as binding. Here is the method:
(§1) A 2 μM concentration of BTK, EGFR, or K-RAS^G12C was added to 2 μM 3k, 4b, or 5a, respectively. […] Each condition was done in triplicates in 20 mM Tris pH 8.0 and 50 mM NaCl for BTK and K-RAS^G12C and in 50 mM Tris pH 8.0 and 100 mM NaCl for EGFR at 32 °C. Fluorescent measurements were taken every 2 min for 2 h for BTK and EGFR and every 10 min for 15 h for K-RAS^G12C. At the end of the measurements, samples were injected directly into the LC/MS for labeling quantification. K-Ras^G12C was expressed and purified as previously described,[69] EGFR kinase domain was a generous gift from Prof. Michael Eck.
Target sequence in this assay (P00533 712-979 limits assumed): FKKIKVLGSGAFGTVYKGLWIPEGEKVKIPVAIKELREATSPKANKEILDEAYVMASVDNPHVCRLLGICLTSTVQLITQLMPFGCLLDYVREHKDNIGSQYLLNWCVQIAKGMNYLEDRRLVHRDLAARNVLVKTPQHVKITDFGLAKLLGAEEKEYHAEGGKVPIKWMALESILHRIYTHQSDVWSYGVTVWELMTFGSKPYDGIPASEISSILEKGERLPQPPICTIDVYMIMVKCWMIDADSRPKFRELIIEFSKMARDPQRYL

A further experiment deals with K-Ras^G12C (Homo sapiens, UniProt P01116, G12C). The description is as above. The format is binding. The conditions noted are these: 2 μM probe, 2 μM protein. The protocol: as §1

What is called IC50 is the midpoint of a concentration-inhibition curve. Lower therefore signals inhibition by little substance. In the case of `C=C(COc1ccc2ccc(=O)oc2c1)C(=O)Nc1cc2c(Nc3ccc(F)c(Cl)c3)ncnc2cc1OC` [4b], at EGFR [1], the IC50 stood at 3.3 nM. Moreover, on EGFR [2], the “released coumarin fluorescence with EGFR” value is recorded as “significant increase in fluorescence intensity”.

Turning to `C=C(COc1ccc2ccc(=O)oc2c1)C(=O)N1CCN(c2nc(=O)n(-c3c(C)ccnc3C(C)C)c3nc(-c4c(O)cccc4F)c(F)cc23)[C@@H](C)C1` [5a], at K-Ras^G12C, the “released coumarin fluorescence with K-RAS^G12C” value is “significant increase in fluorescence intensity”.
